The results in this text go back to patent US4735959A, “Carboxylic acid amides and pharmaceutical compositions containing them” (Dr. Karl Thomae GmbH, priority 1981, dated 1988).

Holding throughout (type): in vivo
One data set deals with mice. The experiment in a line: Acute toxicity in female and male mice after oral administration of a single dose. To be noted: observation time 14 days. As to the method: (§1) The acute toxicity was determined in home-bred female and male mice having body weights of from 20 to 26 gm after oral administration (suspension in a 1% methyl cellulose solution) of a single dose. Observation time: 14 days.

Assay in data set [1]: as above
To be noted: mouse, in vivo, observation time 14 days, read-out: Peroral Toxicity. As to the method:
as §1

The next data set has as its system blood-sugar. The experiment in a line: Blood-sugar lowering activity in starved female rats after oral administration. Conditions: for change in vivo at 1 mg/kg / change in vivo at 5 mg/kg / change in vivo at 10 mg/kg: Rattus norvegicus, po, read-out: Blood-sugar lowering activity, percent as compared with the controls. As to the method:
The blood-sugar lowering activity of the test compounds was determined in home-bred female rats with weights of from 180 to 220 grams. Twenty-four hours before starting the test the animals were starved. Before the test the compounds were suspended in 1.5% methyl cellulose and administered to the animals by means of an esophageal tube.
Blood was taken from the retroorbital plexus vein before administration of the test compounds as well as each of 1, 2, 3, and 4 hours after administration. Fifty microliters of each sample were deproteinized with 0.5 ml of 0.33N perchloric acid and centrifuged. The glucose content was determined in the supernatant according to the Hexokinase method by means of an analysis photometer. The statistical evalulation was performed with the t-test according to Student with p=0.05.

Where [2] appears, read: 1 mg/kg orally, 3 hours, n.s. = not statistically significant.
Setting [3] is: 1 mg/kg orally, 1 hour, n.s. = not statistically significant.
Setting [4] is: 1 mg/kg orally, 2 hours, n.s. = not statistically significant.
[5] abbreviates: 1 mg/kg orally, 4 hours, n.s. = not statistically significant.
Where [6] appears, read: 5 mg/kg orally, 1 hour, n.s. = not statistically significant.
The mark [7] stands for this setting: 5 mg/kg orally, 2 hours, n.s. = not statistically significant.
Where [8] appears, read: 5 mg/kg orally, 3 hours, n.s. = not statistically significant.
[9] abbreviates: 5 mg/kg orally, 4 hours, n.s. = not statistically significant.
The mark [10] stands for this setting: 10 mg/kg orally (footnote *), 3 hours, n.s. = not statistically significant.
Where [11] appears, read: 10 mg/kg orally (footnote *), 4 hours, n.s. = not statistically significant.
[12] abbreviates: 10 mg/kg orally (footnote *), 1 hour.
Setting [13] is: 10 mg/kg orally (footnote *), 2 hours.

Read-outs that look alike come from different tables or passages of the source. A value given as a limit tells only on which side of the number the result lay.

With `CC(NC(=O)Cc1ccc(C(=O)O)cc1)c1ccccc1N1CCCCC1` (racemic) [AT, (±)-4-[(1-(2-Piperidino-phenyl)-1-ethyl)-aminocarbonylmethyl]-benzoicacid], the animals died with mice is recorded as 1 out of 10. The LD50 at 336 h in data set [1] is > 2000 mg/kg. In addition, in the data set with blood-sugar (setting [2]), the “Blood-sugar lowering activity, percent as compared with the controls” value (from here on “Blood-sugar lowering activity, percent”) is recorded as “n.s”. For the same compound, the change in vivo at 1 mg/kg with blood-sugar (setting [3]) is -34%; in the data set with blood-sugar (setting [4]), -26%; with blood-sugar (setting [5]), -11%. The change in vivo at 5 mg/kg was -45% with blood-sugar (setting [6]), -45% with blood-sugar (setting [7]), -36% in the data set with blood-sugar (setting [8]) and -32% with blood-sugar (setting [9]).
Consider `O=C(Cc1ccc(C(=O)O)cc1)NC(c1ccccc1)c1ccccc1N1CCCCC1` (racemic) [AV, (±)-4-[(2-Piperidino-benzhydryl)-aminocarbonylmethyl]-benzoic acid], for which the animals died in the data set with mice is reported as 0 out of 10. In data set [1], the LD50 at 336 h was > 2000 mg/kg. Also, the change in vivo at 1 mg/kg is -41% in the data set with blood-sugar (setting [3]), -38% in the data set on blood-sugar (setting [4]), -26% in the data set with blood-sugar (setting [2]) and -24% in the data set with blood-sugar (setting [5]). The change in vivo at 5 mg/kg was -44% with blood-sugar (setting [6]), -38% in the data set on blood-sugar (setting [7]), -41% with blood-sugar (setting [8]) and -37% with blood-sugar (setting [9]).
Take `CCCC(NC(=O)Cc1ccc(C(=O)O)cc1)c1ccccc1N1CCCCCC1` (stereo not shown) [M, 4-[(1-(2-Hexahydroazepino-phenyl)-1-butyl)-aminocarbonylmethyl]-benzoic acid]: in the data set on blood-sugar (setting [5]), the “Blood-sugar lowering activity, percent” value is “n.s”. Moreover, the results for the change in vivo at 1 mg/kg in the data set with blood-sugar (setting [3]), in the data set on blood-sugar (setting [4]) and in the data set on blood-sugar (setting [2]) were -33%, -30% and -21%, respectively. Also, the change in vivo at 5 mg/kg with blood-sugar (setting [6]) is -46%; in the data set on blood-sugar (setting [7]), -43%; with blood-sugar (setting [8]) it was -40%; with blood-sugar (setting [9]), -36%.
Turning to `CCCCCC(NC(=O)Cc1ccc(C(=O)O)cc1)c1ccccc1N1CCCCC1` (stereo not shown) [N, 4-[(1-(2-Piperidino-phenyl)-1-hexyl)-aminocarbonylmethyl]-benzoic acid], the change in vivo at 5 mg/kg was -42% in the data set with blood-sugar (setting [6]), -42% in the data set with blood-sugar (setting [7]), -37% in the data set on blood-sugar (setting [8]) and -33% in the data set with blood-sugar (setting [9]).
In the case of `O=C(Cc1ccc(C(=O)O)cc1)NC(CCc1ccccc1)c1ccccc1N1CCCCC1` (stereo not shown) [O, 4-[(3-Phenyl-1-(2-piperidino-phenyl)-1-propyl)-aminocarbonylmethyl]-benzoic acid], the “Blood-sugar lowering activity, percent” value in the data set with blood-sugar (setting [10]) and in the data set with blood-sugar (setting [11]) was “n.s” each time. Also, the change in vivo at 10 mg/kg is -38% in the data set with blood-sugar (setting [12]) and -31% with blood-sugar (setting [13]).
As for `N#CC(NC(=O)Cc1ccc(C(=O)O)cc1)c1ccccc1N1CCCCC1` (stereo not drawn) [Q, 4-[(α-Cyano-2-piperidino-benzyl)-aminocarbonylmethyl]-benzoic acid], the “Blood-sugar lowering activity, percent” value in the data set with blood-sugar (setting [8]) and with blood-sugar (setting [9]) was “n.s” in each case. The change in vivo at 5 mg/kg with blood-sugar (setting [6]) is -28%; in the data set with blood-sugar (setting [7]), -13%.
Consider `CCCC(NC(=O)Cc1ccc(CO)cc1)c1ccccc1N1CCCCC1` (stereo not shown) [R, 4-[(1-(2-Piperidino-phenyl)-1-butyl)-aminocarbonylmethyl]-benzyl alcohol], for which the change in vivo at 1 mg/kg is -39% in the data set on blood-sugar (setting [3]), -34% with blood-sugar (setting [4]), -29% in the data set on blood-sugar (setting [2]) and -24% in the data set on blood-sugar (setting [5]). Moreover, the change in vivo at 5 mg/kg with blood-sugar (setting [6]) is -38%; in the data set on blood-sugar (setting [7]), -40%; in the data set on blood-sugar (setting [8]) it was -35%; with blood-sugar (setting [9]) it was -29%.
With `CCCC(NC(=O)Cc1ccc(CC(=O)O)cc1)c1ccccc1N1CCCCC1` (stereo not shown) [S, 4-[(1-(2-Piperidino-phenyl)-1-butyl)-aminocarbonylmethyl]-phenyl-acetic acid], the “Blood-sugar lowering activity, percent” value in the data set on blood-sugar (setting [5]) was “n.s”. The change in vivo at 1 mg/kg was -29% with blood-sugar (setting [3]), -20% in the data set with blood-sugar (setting [4]) and -10% in the data set on blood-sugar (setting [2]). The change in vivo at 5 mg/kg was -49% in the data set on blood-sugar (setting [6]), -42% in the data set with blood-sugar (setting [7]), -30% in the data set on blood-sugar (setting [8]) and -17% in the data set with blood-sugar (setting [9]).
In the case of `CCCC(NC(=O)Cc1ccc(C=CC(=O)O)cc1)c1ccccc1N1CCCCC1` (stereo not shown) [T, 4=[(1-(2-Piperidino-phenyl)-1-butyl)-aminocarbonylmethyl]-cinnamic acid], the change in vivo at 1 mg/kg in the data set on blood-sugar (setting [3]) was -42%; with blood-sugar (setting [4]) it was -42%; with blood-sugar (setting [2]), -40%; in the data set on blood-sugar (setting [5]), -32%. The change in vivo at 5 mg/kg is -48% in the data set with blood-sugar (setting [6]), -46% in the data set with blood-sugar (setting [7]), -42% in the data set with blood-sugar (setting [8]) and -40% in the data set on blood-sugar (setting [9]).
`CCCC(NC(=O)Cc1ccc(C(=O)OCC(O)CO)cc1)c1ccccc1N1CCCCC1` (stereo not shown) [U, 4-[(1-(2-Piperidino-phenyl)-1-butyl)-aminocarbonylmethyl]-benzoic acid 2,3-dihydroxy-propyl ester]: the change in vivo at 1 mg/kg in the data set with blood-sugar (setting [3]) is -39%; in the data set with blood-sugar (setting [4]), -35%; in the data set with blood-sugar (setting [2]), -29%; in the data set with blood-sugar (setting [5]), -24%. Also, the change in vivo at 5 mg/kg with blood-sugar (setting [6]) was -43%; in the data set on blood-sugar (setting [7]) it was -43%; with blood-sugar (setting [8]), -49%; with blood-sugar (setting [9]) it was -45%.
Consider `CCCC(NC(=O)Cc1ccc(C(=O)O)cc1)c1ccc(F)cc1N1CCCCC1` (stereo not shown) [V, 4-[(1-(4-Fluoro-2-piperidino-phenyl)-1-butyl)-aminocarbonylmethyl]-benzoic acid], for which the change in vivo at 1 mg/kg was -37% in the data set on blood-sugar (setting [3]), -23% with blood-sugar (setting [4]), -30% in the data set on blood-sugar (setting [2]) and -18% with blood-sugar (setting [5]). In addition, the change in vivo at 5 mg/kg was -45% with blood-sugar (setting [6]), -41% in the data set with blood-sugar (setting [7]), -46% in the data set with blood-sugar (setting [8]) and -40% in the data set with blood-sugar (setting [9]).
As to `CCCC(NC(=O)Cc1ccc(C(=O)O)cc1)c1ccc(OC)cc1N1CCCCC1` (stereo not shown) [W, 4-[(1-(4-Methoxy-2-piperidino-phenyl)-1-butyl)-aminocarbonylmethyl]-benzoic acid], in the data set on blood-sugar (setting [5]), the “Blood-sugar lowering activity, percent” value is recorded as “n.s”. Moreover, the results for the change in vivo at 1 mg/kg in the data set with blood-sugar (setting [3]), in the data set with blood-sugar (setting [4]) and in the data set with blood-sugar (setting [2]) were -36%, -25% and -16%, respectively. Moreover, the change in vivo at 5 mg/kg in the data set on blood-sugar (setting [6]) is -46%; in the data set on blood-sugar (setting [7]), -45%; with blood-sugar (setting [8]), -39%; with blood-sugar (setting [9]), -37%.
`C=C(NC(=O)Cc1ccc(C(=O)O)cc1)c1ccccc1N1CCCCCCCC1` [X, 4-[(1-(2-Octahydroazonino-phenyl)-1-ethenyl)-aminocarbonylmethyl]-benzoicacid]: the change in vivo at 10 mg/kg is -34% with blood-sugar (setting [12]), -21% in the data set on blood-sugar (setting [13]), -17% with blood-sugar (setting [10]) and -14% with blood-sugar (setting [11]).
As for `CC(NC(=O)Cc1ccc(C(=O)O)cc1)c1cccc(Cl)c1N1CCCCC1` (stereo not shown) [Y, 4-[(1-(3-Chloro-2-piperidino-phenyl)-1-ethyl)-aminocarbonylmethyl]-benzoic acid], the change in vivo at 5 mg/kg in the data set with blood-sugar (setting [6]) is -32%; in the data set with blood-sugar (setting [7]), -24%; in the data set on blood-sugar (setting [8]), -16%; with blood-sugar (setting [9]), -18%.
The corresponding values for `Cc1cccc(C(C)NC(=O)Cc2ccc(C(=O)O)cc2)c1N1CCCCC1` (stereo not shown) [Z, 4-[(1-(3-Methyl-2-piperidino-phenyl)-1-ethyl)-aminocarbonylmethyl]-benzoic acid] are -22%, -33%, -28% and -26%.
